In brackets after ≈: the same amount, converted by molar mass. Read-outs that look alike come from different tables or passages of the source.
Key:
[1] = system: limb bud mesenchymal cells; test: inhibition of chondrogenesis in high-density spot cultures of limb bud mesenchymal cells; type: cell-based; details: Mus musculus; limb bud mesenchymal cell spot cultures, terminated 96 hours after plating; read-out: IC50 (concentration which inhibited chondrogenesis by 50%)
Excerpt: In an in vitro bioassay which measures inhibition of chondrogenesis (bone formation) in […] as a classic measure of teratogenecity the results shown in Table 2 were obtained. The assay is described as follows:
High-density “spot” cultures of limb bud mesenchymal cells were used to compare the ability of various concentrations of test drugs to suppress chondrogenic differentiation as a bioassay. Forelimb buds of mouse embryos on day 12 of gestation (54±2 somites) were dissociated in a trypsin-EDTA solution, and the resultant single-cell suspension was plated as 20-μl spots (200,000 cells/spot) on plastic culture dishes. Retinoid concentrations ranging from 0.3 ng/ml to 3 μg/ml (1 nM-10 μM) were added to the culture medium (Eagle's MEM+10% fetal bovine serum, GIBCO) 24 hours after initial plating. […]
The cultures were terminated 96 hours after plating, at which time the medium was removed and the cells were fixed for 1 hour in 10% formalin containing 0.5% cetylpyridinium chloride. The cultures were rinsed in acetic acid and stained for 1 hour in 0.5% Alcian blue solution at pH 1.0, differentiated in 3% acetic acid, and then dehydrated in ethanol and scored for chondrogenesis under the microscope. […] The number of cartilage nodules stained in the whole spot, mean number of nodules, and standard deviations were calculated for four replicate cultures per treatment. […]

[2] = system: human sebocyte cultures; test: human sebocyte culture 3H-thymidine incorporation (DNA synthesis, anti-proliferative effect); type: cell-based; details: human sebocytes, 8 days treatment, FIG. 2
Excerpt: The retinoid like activity of the compounds used in accordance with the method of treatment of the present invention and of the novel compounds of the invention can be confirmed by several assay procedures. An assay involving human sebocyte cultures measures the inhibition of ^3H-thymidine into cells, and thus measures inhibition of DNA synthesis and thus an anti-proliferative effect on sebocyte (i.e. a sebostatic effect). This assay is also considered a specific assay for effectiveness of a compound as a potential anti-acne drug. The test is conducted as follows.
Face-lift or forehead reduction skins from cosmetic surgeries were used as sources of human sebaceous gland cells (sebocytes).
Isolated sebocytes were plated in type 1 collagen coated-dishes in DMEM/F12 (1:1) medium supplemented with 8% fetal bovine serum, 2% human serum, 10 ng/ml epidermal growth factor, 1 nM cholera toxin, 1 μM hydrocortisone, and penicillin/streptomycin/amphotericin B. Secondary cultures were prepared by plating Dispase dissociated cells in collagen coated 24-well plates.
Sub-confluent secondary cultures were treated with the test compounds or ethanol vehicle every 2-3 days for 8 days in the above medium from which the total serum concentration was reduced to 2% and hydrocortisone was not included. During the last 6 hours of treatment, the cultures were labeled with 2 μCi/ml ^3H-thymidine. DNA from the cells were extracted by thichoroacetic acid and perchloric acid, and assayed for radioactivity by scintillation counting and for content of DNA by the diphenylamine calorimetric method. The results were expressed as CPM/μg DNA, or as per cent of vehicle control which incorporated about 1,000-1,500 cpm/μg DNA.

[3] = system: tissue transglutaminase (tTGASE) in HL-60 cells; test: Tissue Transglutaminase Assay (tTGASE) in HL-60 Cells; type: cell-based; details: FIGS. 6-9
Description: Other assays in which the retinoid like activity of the compounds used in accordance with the invention are confirmed are the HL-60 transglutaminase induction and HL-60 differentiation assay, the procedures of which are described as follows.
HL-60 cells were grown as a suspension culture in T-162 cm^2 flasks in serum-free RPMI 1640 medium supplemented with insulin (5 μg/ml), transferrin (5 μg/ml), and selenium (3 nM). The cells (1×10^6 cells/well, in 6-well dishes) were treated with serial dilutions of test compounds in the above RPMI 1640 medium which was additionally supplemented with […] dibutyryl cyclic adenosine monophosphate, a component found to be necessary for efficient differentiation of the cells. Ethanol was used in the vehicle control cultures. After 1 days of incubation at 37° C. in a 7.5% CO2 incubator, the cells were collected in a set of tubes and pelleted by centrifugation. The cells were lyzed in a buffer containing 20 mM Tris-HCl, pH 7.5, 1 mM EDTA, and 0.5% Triton X-100. An aliquot of the cell lysate was assayed for tTGASE activity in a reaction mixture containing 20 mM Tris-HCl, pH 7.5, 5 mM CaCl2, 2 mg/ml dimethylcasein, 15 mM B-mercaptoethanol and 50 μCi/ml [2,3-^3H] putrescine dihydrochloride. The reaction was carried out for 60 minutes in a 37° C. shaking water bath. The reaction was stopped by an addition of 10% trichloroacetic acid containing 0.1% putrescein. An aliquot of the stopped reaction mixture was spotted on Whatman 3 MM filter discs. The filter discs, along with the control blank filter discs, were washed twice with 5% trichloroacetic acid containing 0.1% putrescein and twice with methanol. After drying under a heat lamp, the radioactivity in the filter discs was determined by scintillation counting. An aliquot of the cell lysates was also assayed for […] by the Bradford method (Bio-Rad). After subtracting the radioactivity from the control blank filter discs, the data were calculated and expressed as pmol/min/mg protein.
As is well understood in the art, induction of tranglutaminase activity in the just-described assay is an early marker of retinoid like activity.

[4] = system: female hairless mice; type: in vivo; details: animals died from a group of 5
Description: Specifically, tests to determine skin toxicity were performed on certain examplary compounds in accordance with the present invention, and on certain analogous compounds which lack the R3 substituent in accordance with Formula 1, 2 or 3. A “Two Week Acute Skin Toxicity Study of Multiple Topical Applications in Female Hairless Mice” is conducted as follows: a daily dose (expressed in nanomoles) of the “test compound” is applied to the skin on the back of hairless mice (usually a test group of 5 mice for a given compound). The daily dose of the test compound is applied for 5 consecutive days, followed by two days when the test compound is not administered, and is thereafter administered again for 4 more consecutive days. On the 14th day the test animals if still alive, are sacrificed to perform certain studies and tests. In the meanwhile certain tests and observations are made on a daily basis with respect to body weight and skin condition. Skin condition is graded as “flaking/scaling” and “abrasion” on a scale of 0 to +5 where the various numbers correspond to the following observations.
Results of these tests are summarized in Table 3, where daily dose is expressed in nanomoles, weight loss of the test animals is in percentages at the end of the 14 day test period, or at the time the test animal expired, and mortality is expressed with the number of animals which died from a group of 5.

C/C(=C\c1ccc(C(=O)O)cc1)c1ccc2c(c1)C(C)(C)CCC2(C)C [AGN 191183, reference compound]
IC50 [1]: 3 ng/mL (≈ 8.61 nM)
inhibition of 3H-thymidine incorporation (effectiveness in sebocyte assay) [2]: not effective
induction of transglutaminase activity [3]: inactive
Death/Total ([4]; daily dose 7.5 nanomoles topical): 0/5
Death/Total ([4]; daily dose 25 nanomoles topical): 0/5
Death/Total ([4]; daily dose 75 nanomoles topical): 5/5
Death/Total ([4]; daily dose 80 nanomoles topical): 5/5

— patent US6624188B1, “Method of treatment with compounds having retinoid-like activity and reduced skin toxicity and lacking teratogenic effects” (Allergan, Inc., priority 1992, dated 2003)
